Laboratory results taken from paper PMC6169004, “In vitro pro-inflammatory enzyme inhibition and anti-oxidant potential of selected Sri Lankan medicinal plants” (BMC Complementary and Alternative Medicine, 2018).

Target: T1, A5-LOX (soybean); arachidonate-5-lipoxygenase
T1 construct: gene LOX1.1; most likely lipoxygenase-1
Test: spectrophotometric, absorbance at […] nm
Type: biochemical, Glycine max
Settings: linoleic acid substrate ([…] μL of […]), sodium phosphate pH […] °C, […] min preincubation

O=c1cc(-c2ccccc2)oc2cc(O)c(O)c(O)c12 [Baicalein]
Anti-A5-LOX activity IC50 (μg mL^- 1): 1.76 ± 0.15 μg mL^− 1
